Laboratory results from patent US9993488B2, “Dry powder formulations for inhalation” (OtiTopic Inc., priority 2014, dated 2018).
Values after ≈ are worked out from the molar mass of the structure shown. Where two headings read alike, the source gives them in different places. Values belong to the molecule of their own block, whether it stands above or below them.

Assays:
[1] = Gravimetric emitted dose through DPI devices (TwinCaps, RS01) with NGI; format: physicochemical; conditions: 40 L/min, fill weight 60.00 mg
Method: The aerodynamic particle size distributions (APSDs) of the ASA powders were determined by evaluating emitted doses gravimetrically through two DPI devices, the TwinCaps and the RS01, using a Next Generation Impactor (NGI). Flow rates of approximately 40 and 100 L/min provided the 4 kPa pressure drop across the TwinCaps and RS01 devices, respectively, as stipulated by USP <601>, Inhalation and Nasal Drug Products: Aerosol, Sprays, and Powders—Performance Quality Tests.
The TwinCaps DPI was tested (2 actuations) using various loaded doses. Testing was performed to determine the approximate emitted dose from the device based on weight. Each test was performed using a freshly prepared NGI.
The Plastiape RS01 monodose DPI inhaler was also tested using various loaded doses in Size 3 HPMC capsules to determine approximate emitted dose based on the weight.

[2] = Solubility of aspirin in solvents; format: physicochemical; conditions: organic solvent or mixture
Excerpt: The solubility of aspirin in a number of solvents was first evaluated prior to initiating controlled crystallization by addition of a suitable anti-solvent.

vascular events = conditions: cited from earlier work
[3] = tested on: platelet aggregation, platelet thromboxane production, urinary 2,3-dinor-TXB2 excretion; conditions: cited from earlier work
[4] = tested on: major gastrointestinal and extracranial bleeds; conditions: oral aspirin; cited from earlier work
[5] = cited from earlier work
[6] = Solubility of aspirin in anti-solvents / dispersion media; format: physicochemical
Method: After considering a number of factors in the end it was determined that only n-heptane and toluene fulfilled all the requirements, and therefore these were selected for further evaluation. Suspensions of aspirin at 5% w/w were prepared with the various anti-solvents, by charging the required amount of anti-solvent, charging the required amount of aspirin, and then stirring until a homogeneous suspension was obtained. The suspensions were qualitatively evaluated at room temperature and then filtered using a 0.45 μm membrane, which was then placed in an oven and dried at 60° C. until the solvent had completely evaporated. A quantitative analysis was performed on the residue that remained in the membrane by weighing the membrane before and after the test.
5% w/w DSPC was used as it was found from previous work to mitigate irritation when inhaled. Additionally, soy lecithin was also used in the concentration of 0.1% w/w. As aspirin is insoluble in n-hexane, it was selected as a dispersion media for the micronized particles. Also, it has boiling point of 70° C. which is much below the melting point of aspirin (˜135° C.) and therefore, an inlet temperature of 85° C. should remove solvent without affecting the aspirin particles.

respiratory system = assay: Irritation / tolerability on inhalation; format: in vivo
Excerpt: In addition, particles described herein can be mixed and/or coated with various pharmaceutically acceptable excipients. Excipients can be included in order to improve aerodynamic performance of the active drug, to improve bioavailability, increase stability, to modulate pH, to provide sustained release properties, to provide taste-masking of an irritating drug and/or to improve pharmacokinetic performance. In one embodiment, a dry powder comprises an amount of excipient effective to provide taste-masking of an irritating drug. In terms of suitable formulations for inhalation, not only is particle size important in order to reach a desired region of the respiratory system, but the formulation must be acceptable to patients. […] Consequently, it became necessary to find a suitable excipient in order to mask this property of aspirin.
Aspirin alone may be too irritating and evoke a choking response (e.g., coughing, bronchospasms) when inhaled. […] For example, symptoms of headache and nasal congestion may be alleviated within about 10 seconds, about 15 seconds, about 20 seconds, about 30 seconds, or within about 45 seconds.

[7] = Pharmacokinetics of orally administered aspirin (literature); conditions: extrapolated from linear pharmacokinetics over 30-400 mg
[8] = after oral administration of ASA
[9] = 5% w/w suspension, room temperature, 0.45 μm filtration
[10] = following administration of ASA

- % Emitted (based on fill weight) [1]: 94.5%
- Total Emitted Dose [1]: 56.73 mg
Structure (SMILES): OC[C@H]1O[C@@H](O[C@H]2[C@H](O)[C@@H](O)C(O)O[C@@H]2CO)[C@H](O)[C@@H](O)[C@H]1O (stereo partly shown) [Lactose, lactose]

Structure (SMILES): CC(=O)Oc1ccccc1C(=O)O [aspirin, acetylsalicylic acid]
- solubility ([2]; DMF, 23 °C): 500 mg/mL (≈ 2780 mM)
- solubility ([2]; PEG-200, 23 °C): 77 mg/mL (≈ 427 mM)
- solubility ([2]; THF, 3 °C): 250 mg/mL (≈ 1390 mM)
- solubility ([2]; THF, 23 °C): 500 mg/mL (≈ 2780 mM)
- solubility ([2]; acetone, 3 °C): 143 mg/mL (≈ 794 mM)
- solubility ([2]; acetone, 23 °C): 200 mg/mL (≈ 1110 mM)
- solubility ([2]; ethanol, EtOH, 3 °C): 63 mg/mL (≈ 350 mM)
- solubility ([2]; ethanol, EtOH, 23 °C): 125 mg/mL (≈ 694 mM)
- solubility ([2]; methanol, MeOH, 3 °C): 133 mg/mL (≈ 738 mM)
- solubility ([2]; methanol, MeOH, 23 °C): 167 mg/mL (≈ 927 mM)
- vascular events prevented (vascular events; Dutch TIA Study, any dose above 30 mg daily): 13%
- risk of stroke or death (vascular events; SALT, 75 mg/day, patients with cerebrovascular ischemic events): significantly reduces
- inhibition of indices of platelet activation ([3]; 40 mg ASA versus 100 mg, healthy human subjects): significantly less effective
- inhibition of platelet aggregation, thromboxane production, urinary 2,3-dinor-TXB2 excretion ([3]; plain versus enteric-coated 100 mg ASA): equally effective
- increase of major gastrointestinal and extracranial bleeds [4]: over 50%
- elimination half-life [5, 8]: 0.25 to 0.333 h
- time to peak plasma levels [5, 8]: about 20 minutes
- fraction of oral dose bioavailable ([5]; oral, first pass effect): one to two-thirds
- fraction of oral dosage lost or inactivated by first pass effect ([5]; oral, gut and liver): approximately ⅔
- Behavior towards n-heptane [6, 9]: phobic behavior
- Solubility in toluene [6, 9]: partially soluble
- Solubility in n-hexane ([6]; n-hexane): insoluble
- irritation / tolerability when inhaled (respiratory system): quite irritating

- expected peak circulating plasma level [7]: ~10 µg/mL
Structure (SMILES): O=C(O)c1ccccc1O [salicylic acid]
- elimination half-life [5, 10]: 2 to 3 h
- period of increasing plasma levels [5, 10]: about 45 minutes
